Measurements taken from patent publication US8980838B2, “Cyclized peptidomimetic small molecule inhibitors of the WDR5 and MLL1 interaction” (The Regents of the University of Michigan, priority 2011, dated 2015).
*1 amine or outer side, *2 acyl side, *3 side chain or, on linkers, in order; H or OH if unused. Where a SMILES comes first, the peptide text is derived from it. Bridges are numbered along the chain shown (N, C = ends). [ ]: non-standard residue; d: D form. The star is where a group is joined. dαMeLys(Me) = CN(CCCC[C@@](C)(N[*:1])C(=O)[*:2])[*:3]; dPhg(4-F) = N[C@@H](C(=O)O)c1ccc(F)cc1; dPhg = N[C@@H](C(=O)O)c1ccccc1; Isobutyryl = CC(C)C(=O)*; Abu = CC[C@H](N)C(=O)O

What follows are compounds tested against T1, WDR5 (Homo sapiens, UniProt P61964) (assay: fluorescence-polarization based competitive binding assay). Conditions: not given.
T1 construct: N-terminal His-tagged WDR5Δ23 (residues 24-334) was expressed from the pET28-MHL vector; His tag (N); made in house; host or cells: Rosetta2(DE3) pLysS cells (E. coli)
Procedure: Binding Assay Protein Expression and Purification for the Binding Assay
Cells were grown to OD600=0.4-0.6 in 4 L 2×TY at 30° C., induced with 0.1 mM IPTG at 16° C. for 16 hours and harvested in 20 mM HEPES pH 7.5, 500 mM KCl, 10% glycerol, 0.1 mg/ml PMSF, 0.05% NP40. Cells were lysed by addition of 0.2 mg/ml hen egg white lysozyme followed by sonication and clarification by centrifuging for 30 minutes at 15,000 rpm. The resin was washed 3 times for 10 minutes with 40 ml lysis buffer. His-WDR5Δ23 was eluted from the resin by 3×15 minute elutions with 20 mM HEPES pH 7.5, 100 mM KCl, 10% glycerol, 250 mM imidazole pH 7.5. […] Concentrated protein was aliquoted and samples were frozen on dry ice and stored at −80° C.
The IC50 value of the inhibitors were calculated using GraphPad Prism 4 software.
Competitive Binding Experiments
The binding affinities of the synthetic peptides shown in the study were measured using this competitive binding assay described earlier (31). A pre-incubated complex solution of WDR5Δ23 and the tracer in 120 μl assay buffer were added to dilutions of the test compound in 5 μl DMSO, giving final concentrations of WDR5Δ23 and the tracer of 4 nM and 0.6 nM, respectively. […] The plates were incubated with shaking at room temperature. The mP values were measured after five hours of incubation and Ki values were calculated using the equation described previously (32).
`CC[C@@H]1NC(=O)[C@H](CCCNC(=N)N)NC(=O)[C@](C)(NC(=O)C(C)C)CCCCN(C)C(=O)[C@@H](c2ccc(F)cc2)NC1=O` [Compound 29e] (Isobutyryl-[dαMeLys(Me)]R[Abu][dPhg(4-F)]; lactam 1-C) gave an IC50 of less than 10 nM.
`CC[C@@H]1NC(=O)[C@H](CCCNC(=N)N)NC(=O)[C@](C)(NC(=O)C(C)C)CCCCN(C)C(=O)[C@@H](c2ccccc2)NC1=O` [Compound 29d] (Isobutyryl-[dαMeLys(Me)]R[Abu][dPhg]; lactam 1-C) was tested, and the IC50 was less than 10 nM.
Work on `CC[C@@H]1NC(=O)[C@H](CCCNC(=N)N)NC(=O)[C@](C)(NC(=O)C(C)C)CCCCN(C)C(=O)[C@@H](c2ccc(Cl)cc2)NC1=O` [Compound 29f] yielded an IC50 of less than 10 nM.

Same assay, conditions: FP competitive binding; WDR5Δ23 4 nM, tracer 0.6 nM, five hours incubation; Table 2 series; read-out: IC50, binding affinity to WDR5
In the case of `CC[C@@H]1NC(=O)[C@H](CCCNC(=N)N)NC(=O)[C@](C)(NC(=O)C(C)C)CCCCCNC1=O` [Compound 19a], the IC50 is reported as less than 1000 nM.
`CC[C@@H]1NC(=O)[C@H](CCCNC(=N)N)NC(=O)[C@](C)(NC(=O)C(C)C)CCCCCCCCNC1=O` [Compound 19c] gave an IC50 of less than 10 nM.
With `CC[C@@H]1NC(=O)[C@H](CCCNC(=N)N)NC(=O)[C@](C)(NC(=O)C(C)C)CCCCCCNC1=O` [Compound 19b] the IC50 was less than 10 nM.
Compound `CC[C@@H]1NC(=O)[C@H](CCCNC(=N)N)NC(=O)[C@](C)(NC(=O)C(C)C)CCCCCCNC(=O)[C@@H](c2ccccc2)NC1=O` [Compound 29b] has an IC50 of less than 10 nM.
Work on `CC[C@@H]1NC(=O)[C@H](CCCNC(=N)N)NC(=O)[C@](C)(NC(=O)C(C)C)CCCCCCNC(=O)[C@H](c2ccccc2)NC1=O` [Compound 29c] yielded an IC50 of less than 10 nM.

Same assay, conditions: FP competitive binding; WDR5Δ23 4 nM, tracer 0.6 nM, five hours incubation; Table 3 series; read-out: IC50, binding affinity to WDR5
`CC[C@@H]1NC(=O)[C@H](CCCNC(=N)N)NC(=O)[C@@](C)(NC(=O)C(C)C)CCCCCCCCNC1=O` [Compound 34d] gave an IC50 of less than 1000 nM.
`CC[C@@H]1NC(=O)[C@H](CCCNC(=N)N)NC(=O)[C@@](C)(NC(=O)C(C)C)CCCCCCNC(=O)[C@H](c2ccccc2)NC1=O` [Compound 36] was tested, and the IC50 was less than 1000 nM.
`CC[C@@H]1NC(=O)[C@H](CCCNC(=N)N)NC(=O)[C@@](C)(NC(=O)C(C)C)CCCCCCCNC1=O` [Compound 34c] was tested, and the IC50 was less than 1000 nM.

Same assay, conditions: FP competitive binding; WDR5Δ23 4 nM, tracer 0.6 nM, five hours incubation; first cyclic series (Table 1); read-out: IC50, binding affinity to WDR5
`CCC1(CC)NC(=O)CCCCCCCCNC(=O)[C@H](CCCNC(=N)N)NC1=O` [Compound 4e] showed an IC50 greater than 1000 nM.
`CCC1(CC)NC(=O)CCCCCCCN(C(C)=O)C[C@H](CCCNC(=N)N)NC1=O` [Compound 14] was tested, and the IC50 was greater than 100000 nM.
`CCC1(CC)NC(=O)CCCCCCNC(=O)[C@H](CCCNC(=N)N)NC1=O` [Compound 4c] was tested, and the IC50 was greater than 100000 nM.
Compound `CCC1(CC)NC(=O)CCCCCCCNC[C@H](CCCNC(=N)N)NC1=O` [Compound 15] has an IC50 greater than 100000 nM.
`CCC1(CC)NC(=O)CCCCCCCNC(=O)[C@H](CCCNC(=N)N)NC1=O` [Compound 4d] gave an IC50 greater than 1000 nM.
Compound `CCC1(CC)NC(=O)CCCCNC(=O)[C@H](CCCNC(=N)N)NC1=O` [Compound 4a] has an IC50 greater than 100000 nM.
`CCC1(CC)NC(=O)CCCCCNC(=O)[C@H](CCCNC(=N)N)NC1=O` [Compound 4b] gave an IC50 greater than 100000 nM.
